Measured values reported in patent US20070253957A1, “Substituted N-Aryl-1H-Pyrazolo[3,4-B]Quinolin-4-Amines and Analogs as Activators of Caspases and Inducers of Apoptosis” (Cytovia, Inc., priority 2004, published 2007).

Key:
T-47D [1] = assay: Caspase cascade activation assay (N-(Ac-DEVD)-N'-ethoxycarbonyl-R110 fluorogenic substrate) in T-47D cells; format: cell-based, Human; conditions: 24 h incubation
Method: Human breast cancer cell lines T-47D was grown according to media component mixtures designated by American Type Culture Collection+10% FCS (mvitrogen Corporation), in a 5% CO2-95% humidity incubator at 37° C. T-47D and ZR-75-1 cells were maintained at a cell density between 30 and 80% confluency and for HL-60 at a cell density of 0.1 to 0.6×10^6 cells/mL. Cells were harvested at 600×g and resuspended at 0.65×10^6 cells/mL into appropriate media+10% FCS. An aliquot of 45 μL of cells was added to a well of a 96-well microtiter plate containing 5 μL of a 10% DMSO in RPMI-1640 media solution containing 1.6 to 100 μM of 1,3-dimethyl-N-(4-methoxyphenyl)-1H-pyrazolo[3,4-b]quinolin-4-amine or other test compound (0.16 to 10 μM final). An aliquot of 45 μL of cells was added to a well of a 96-well microtiter plate containing 5 μL of a 10% DMSO in RPMI-1640 media solution without test compound as the control sample. The samples were mixed by agitation and then incubated at 37° C. for 24 h in a 5% CO2-95% humidity incubator. After incubation, the samples were removed from the incubator and 50 μL of a solution containing 20 μM of N-(Ac-DEVD)-N′-ethoxycarbonyl-R110 fluorogenic substrate (SEQ ID NO:1) (Cytovia, Inc.; U.S. Pat. No. 6,335,429), 20% sucrose (Sigma), 20 mM DTT (Sigma), 200 mM NaCl (Sigma), 40 mM Na PIPES buffer pH 7.2 (Sigma), and 500 μg/mL lysolecithin (Calbiochem) was added. The samples were mixed by agitation and incubated at room temperature. Using a fluorescent plate reader (Model 1420 Wallac Instruments), an initial reading (T=0) was made about 1-2 min after addition of the substrate solution, employing excitation at 485 nm and emission at 530 nm, to determine the background fluorescence of the control sample. After about 3 h of incubation, the samples were read for fluorescence as above (T=3 h).
The Relative Fluorescence Unit values (RFU) were used to calculate the sample readings as follows: RFU(T=3h)−Control RFU(T=0)=Net RFU(T=3h)
The activity of caspase cascade activation was determined by the ratio of the net RFU value for 1,3-dimethyl-N-(4-methoxyphenyl)-1H-pyrazolo[3,4-b]quinolin-4-amine to that of control samples. The EC50 (nM) was determined by a sigmoidal dose-response calculation (Prism 2.0, GraphPad Software Inc.).

T-47D [2] = assay: Inhibition of cell proliferation (GI50), CellTiter 96 AQUEOUS One Solution, T-47D cells; format: cell-based, Human; conditions: Homo sapiens, T47D, 48 h incubation, dose for 50% inhibition of cell proliferation
Method: (§1) T-47D and MX1 cells were grown and harvested as in Example 49. An aliquot of 90 μL of cells (2.2×10^4 cells/mL) was added to a well of a 96-well micrQtiter plate containing 10 μl of a 10% DMSO in RPMI-1640 media solution containing […] to 100 μM of 1,3-dimethyl-N-(4-methoxyphenyl)-1H-pyrazolo[3,4-b]quinolin-4-amine (0.1 nM to 10 μM final) or other test compound. An aliquot of 90 μL of cells was added to a well of a 96-well microtiter plate containing 10 μL of a 10% DMSO in RPMI-1640 media solution without compound as the control sample for maximal cell proliferation (AMax). The samples were mixed by agitation and then incubated at 37° C. for 48 h in a 5% CO2-95% humidity incubator. After incubation, the samples were removed from the incubator and 20 μL of CellTiter 96 AQUEOUS One Solution Cell Proliferation™ reagent (Promega) was added. The samples were mixed by agitation and incubated at 37° C. for 2-4 h in a 5% CO2-95% humidity incubator. Using an absorbance plate reader (Model 1420 Wallac Instruments), an initial reading (T=0) was made about 1-2 min after addition of the solution, employing absorbance at 490 nm. This determines the possible background absorbance of the test compounds. No absorbance for 1,3-dimethyl-N-(4-methoxyphenyl)-1H-pyrazolo[3,4-b]quinolin-4-amine was found at 490 nm. After the 2-4 h incubation, the samples were read for absorbance as above (ATest).
(§2) Baseline for GI50 (dose for 50% inhibition of cell proliferation) of initial cell numbers were determined by adding an aliquot of 90 μL of cells or 90 μL of media, respectively, to wells of a 96-well microtiter plate containing 10 μL of a 10% DMSO in RPMI-1640 media solution. The samples were mixed by agitation and then incubated at 37° C. for 0.5 h in a 5% CO2-95% humidity incubator. After incubation, the samples were removed from the incubator and 20 μL of CellTiter 96 AQUEOUS One Solution Cell Proliferation™ reagent (Promega) was added. The samples were mixed by agitation and incubated at 37° C. for 2-4 h in a 5% CO2-95% humidity incubator. Absorbance was read as above, (Astart) defining absorbance for initial cell number used as baseline in GI50 determinations.
(§3) GI50 (dose for 50% inhibition of cell proliferation) is the concentration where [(ATest−Astart)/(AMax−AStart)]=0.5.

MX1 = assay: Inhibition of cell proliferation (GI50), CellTiter 96 AQUEOUS One Solution, MX1 cells; format: cell-based; conditions: Homo sapiens, 48 h incubation, dose for 50% inhibition of cell proliferation
Method: as §1, §2, §3

- EC50 (T-47D [1]; Homo sapiens, T47D, sigmoidal dose-response calculation, read-out: Caspase Potency EC50): 0.183 µM
- GI50 (T-47D [2]): 0.14 µM
SMILES: CCC(O)c1ccc(Nc2c3ccccc3nc3c2c(C)nn3C)cc1 (stereo not shown) [Example 43, N-(4-(1-Hydroxypropyl)-phenyl)-1,3-dimethyl-1H-pyrazolo[3,4-b]quinolin-4-amine]
- Caspase Activity Ratio (T-47D [1]; ratio of net RFU (T=3 h) to that of control samples, 0.16 to 10 μM final): 3.7
- GI50 (MX1): 1.67 µM
